In US9301951B2 (Ardelyx, Inc., priority 2010, dated 2016):

Target: T1, rat NaP2b (SLC34A2) (Rattus norvegicus, UniProt Q9JJ09)
T1 construct: host or cells: HEK293
T1 sequence (Q9JJ09 1-695): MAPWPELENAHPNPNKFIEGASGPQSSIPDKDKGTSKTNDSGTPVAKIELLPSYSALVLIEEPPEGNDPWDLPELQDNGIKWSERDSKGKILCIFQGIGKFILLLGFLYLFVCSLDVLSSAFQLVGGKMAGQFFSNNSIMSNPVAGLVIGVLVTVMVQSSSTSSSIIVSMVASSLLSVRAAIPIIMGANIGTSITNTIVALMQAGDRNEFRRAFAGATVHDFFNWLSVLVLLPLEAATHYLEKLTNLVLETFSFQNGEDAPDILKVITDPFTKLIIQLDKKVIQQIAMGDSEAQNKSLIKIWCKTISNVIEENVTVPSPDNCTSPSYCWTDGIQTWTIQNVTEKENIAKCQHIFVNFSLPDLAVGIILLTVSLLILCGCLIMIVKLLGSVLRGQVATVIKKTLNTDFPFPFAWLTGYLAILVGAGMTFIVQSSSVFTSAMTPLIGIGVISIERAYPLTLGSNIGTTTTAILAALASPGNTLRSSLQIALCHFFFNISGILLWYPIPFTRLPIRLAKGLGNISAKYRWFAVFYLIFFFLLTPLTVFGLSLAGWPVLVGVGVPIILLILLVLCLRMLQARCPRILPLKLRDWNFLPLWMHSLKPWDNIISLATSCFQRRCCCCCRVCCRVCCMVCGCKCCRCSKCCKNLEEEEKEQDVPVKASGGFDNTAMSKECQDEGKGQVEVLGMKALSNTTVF
Assay: Inhibition of NaP2b-mediated Pi (33P) uptake in transfected HEK293 cells, rat NaP2b
Type: cell-based
Settings: HEK293 cells transfected with rat NaP2b, 100 uM phosphate, 0.1 nM to 30 uM, read-out: pIC50 range for rat Nap2b (converted)
Method: HEK293 cells were obtained from the American Type Culture collection and propagated per their instructions. Expression clones for rat and human NaP2b (SLC34A2) were obtained from Open Biosystems (Catalog numbers MRN1768-9510282, and MHS1010-99823026, respectively). The sequence of the human protein was mutated to insert a threonine after residue 37, and to introduce a N39D mutation.
Cells were seeded into 96-well plates at 25,000 cells/well and cultured overnight. Lipofectamine 2000 (Invitrogen) was used to introduce the NaP2b cDNA, and the cells were allowed to approach confluence during a second overnight incubation. […] Cells were then overlayed with either choline uptake buffer or sodium uptake buffer (14 mM Tris, 137 mM sodium chloride, 5.4 mM KCl, 2.8 mM CaCl2, 1.2 mM MgSO4, 100 uM KH2PO4, PiT-silencing agent, 1 mg/mL Bovine Serum Albumin, pH 7.4) containing 6-9 uCi/mL ^33P orthophosphoric acid (Perkin Elmer) and test compound. Each compound was tested at twelve concentrations ranging from 0.1 nM to 30 uM. Assays were run in duplicate.
Cells were lysed by addition of 20 μL 0.1% Tween 80 followed by 100 μL scintillation fluid, and counted using a TopCount (Perkin Elmer).
pIC50 (the negative log of the […]) values of the test compounds were calculated using GraphPad Prism.

Row | SMILES | IC50 [µM]
1 | CC(=O)NC1CCN(Cc2cccc(C(=O)Nc3ccc(N4CCCCC4)cc3-c3cc(C(=O)NCc4cccc(C(F)(F)F)c4)ccn3)c2)C1 (stereo in doubt) [Example 48, (S)-2-(2-(3-((3-Acetamidopyrrolidin-1-yl)methyl)benzamido)-5-(piperidin-1-yl)phenyl)-N-(3-(trifluoromethyl)benzyl)isonicotinamide] | 1 to 7.94
2 | O=C(O)CCSCc1cccc(C(=O)Nc2ccc(N3CCCCC3)cc2-c2cc(C(=O)NCCCCCCCCCCCCNC(=O)c3ccnc(-c4cc(N5CCCCC5)ccc4NC(=O)c4cccc(CSCCC(=O)O)c4)c3)ccn2)c1 [Example 2] | 10 to 31.6
3 | CC(C)Oc1ccc(NC(=O)c2cccc(CSCCC(=O)O)c2)c(-c2cc(C(=O)NCc3cccc(C(F)(F)F)c3)ccn2)c1 [Example 15, 3-((3-((4-Isopropoxy-2-(4-((3-(trifluoromethyl)benzyl)carbamoyl)pyridin-2-yl)phenyl)carbamoyl)benzyl)thio)propanoic acid] | 1 to 7.94
4 | O=C(O)CCSCc1cccc(C(=O)Nc2ccc(F)cc2-c2cc(C(=O)NCc3cccc(C(F)(F)F)c3)ccn2)c1 [Example 18, 3-((3-((4-Fluoro-2-(4-((3-(trifluoromethyl)benzyl)carbamoyl)pyridin-2-yl)phenyl)carbamoyl)benzyl)thio)propanoic acid] | 1 to 7.94
5 | O=C(O)CCSCc1cccc(C(=O)Nc2ccc(N3CCCC3)cc2-c2cc(C(=O)NCc3cccc(C(F)(F)F)c3)ccn2)c1 [Example 20, 3-((3-((4-(Pyrrolidin-1-yl)-2-(4-((3-(trifluoromethyl)benzyl)carbamoyl)pyridin-2-yl)phenyl)carbamoyl)benzyl)thio)propanoic acid] | 1 to 7.94
6 | O=C(O)CCSCc1cccc(C(=O)Nc2ccccc2-c2cc(C(=O)NCc3cccc(C(F)(F)F)c3)ccn2)c1 [Example 22, 3-((3-((2-(4-((3-(Trifluoromethyl)benzyl)carbamoyl)pyridin-2-yl)phenyl)carbamoyl)benzyl)thio)propanoic acid] | 10 to 31.6
7 | O=C(O)CCSCc1cccc(C(=O)Nc2ccc(N3CCSCC3)cc2-c2cc(C(=O)NCc3cccc(C(F)(F)F)c3)ccn2)c1 [Example 27, 3-((3-((4-Thiomorpholino-2-(4-((3-(trifluoromethyl)benzyl)carbamoyl)pyridin-2-yl)phenyl)carbamoyl)benzyl)thio)propanoic acid] | 1 to 7.94

The remaining lines, values ahead:

Row | IC50 [µM] | SMILES
8 | 1 to 7.94 | O=C(O)CCSCc1cccc(C(=O)Nc2ccc(N3CCCCC3)cc2-c2cc(C(=O)NCc3ccccc3)ccn2)c1 [Example 1.4]
9 | 10 to 31.6 | O=C(O)CCSCc1cccc(C(=O)Nc2ccc(N3CCCCC3)cc2-c2cc(C(=O)N3CCCC3c3ccccc3)ccn2)c1 (stereo not shown) [Example 1.9]
10 | 10 to 31.6 | O=C(O)CCSCc1cccc(C(=O)Nc2ccc(N3CCCCC3)cc2-c2cc(C(O)CCc3ccccc3)ccn2)c1 (stereo not shown) [Example 6.1, 3-((3-((2-(4-(1-hydroxy-3-phenylpropyl)pyridin-2-yl)-4-(piperidin-1-yl)phenyl)carbamoyl)benzyl)thio)propanoic acid]
11 | 1 to 7.94 | COCCN(CCOC)c1ccc(NC(=O)c2cccc(CSCCC(=O)O)c2)c(-c2cc(C(=O)NCc3cccc(C(F)(F)F)c3)ccn2)c1 [Example 17, 3-(3-((2-(4-((3-(trifluoromethyl)benzyl)carbamoyl)pyridin-2-yl)-4-(bis(2-methoxyethyl)amino)phenyl)carbamoyl)benzylthio)propanoic acid]
12 | 1 to 7.94 | CCCN(CCC)c1ccc(NC(=O)c2cccc(CSCCC(=O)O)c2)c(-c2cc(C(=O)NCc3cccc(C(F)(F)F)c3)ccn2)c1 [Example 19, 3-((3-((4-(Dipropylamino)-2-(4-((3-(trifluoromethyl)benzyl)carbamoyl)pyridin-2-yl)phenyl)carbamoyl)benzyl)thio)propanoic acid]
13 | 1 to 7.94 | CN(CCN1CCOCC1)C(=O)c1cccc(C(=O)Nc2ccc(N3CCCCC3)cc2-c2cc(-c3cn(Cc4ccccc4)nn3)ccn2)c1 [Example 24, N1-(2-(4-(1-Benzyl-1H-1,2,3-triazol-4-yl)pyridin-2-yl)-4-(piperidin-1-yl)phenyl)-N3-methyl-N3-(2-morpholinoethyl)isophthalamide]
